Measured values: ChEMBL document CHEMBL1201862, “PubChem BioAssay data set” (2004)
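Where inhibition never reached the appropriate level, the endpoint shown equals the highest concentration tested. Otherwise, values were interpolated linearly from a five-concentration, 48-hour dose response in 96-well plates. At the GI50, growth is halved.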 Activity calls are given as the source filed them. Rule as the data show it: active = GI50 up to about 1.1 µM and inactive = higher.

How the values were obtained:
Experiment in all cases: growth of human tumour cells (NCI), 48 h
[1] = tested on: M19-MEL
[2] = tested on: DMS-273
[3] = tested on: K562
[4] = tested on: COLO 205
[5] = tested on: HCT-116
[6] = tested on: SN12C
[7] = tested on: HT-29
[8] = tested on: CAKI-1
[9] = tested on: KM-20L2
[10] = tested on: OVCAR-3
[11] = tested on: OVCAR-8
[12] = tested on: SNB-78
[13] = tested on: NCI-H23
[14] = tested on: UACC-62
[15] = tested on: HL-60
[16] = tested on: SW-620

Measured: GI50

CCC(=O)N1C(=O)OCC1C(C)C (stereo not drawn)
inactive: [1] > 100 µM | [2] > 100 µM | [3] > 100 µM | [4] > 100 µM | [5] > 100 µM | [6] > 100 µM | [7] > 100 µM | [8] > 100 µM | [9] > 100 µM | [10] > 100 µM | [11] > 100 µM | [12] > 100 µM | [13] > 100 µM | [14] > 100 µM | [15] > 100 µM | [16] > 100 µM

O=C1NC(Cc2ccccc2)C(=O)N2CCCC12 (stereo not drawn)
inactive: [1] > 100 µM | [2] > 100 µM | [3] > 100 µM | [4] > 100 µM | [5] > 100 µM | [6] > 100 µM | [7] > 100 µM | [8] > 100 µM | [9] > 100 µM | [10] > 100 µM | [11] > 100 µM | [12] > 100 µM | [14] > 100 µM | [15] > 100 µM | [16] > 100 µM

N#CC(/C(=N\NC(N)=S)C(=O)NC1C2CC3CC(C2)CC1C3)c1ccc(Cl)cc1 (stereo not drawn)
inactive: [1] > 100 µM | [2] > 100 µM | [3] > 100 µM | [4] > 100 µM | [5] > 100 µM | [6] > 100 µM | [7] > 100 µM | [8] > 100 µM | [9] > 100 µM | [10] > 100 µM | [11] > 100 µM | [12] > 100 µM | [13] > 100 µM | [14] > 100 µM | [15] > 100 µM | [16] > 100 µM

CC(C)c1ccc(C(c2ccc(OCC(=O)O)cc2)c2ccc(C(C)C)cc(=O)c2O)c(O)c(=O)c1
inactive: [1] 4.94 µM | [2] 3.45 µM | [3] 3.41 µM | [4] 3.14 µM | [5] 3.76 µM | [6] 4.15 µM | [7] 3.92 µM | [8] 3.82 µM | [9] 3.54 µM | [10] 2.77 µM | [11] 4.44 µM | [12] 6.79 µM | [13] 3.78 µM | [14] 3.55 µM | [15] 3.27 µM | [16] 4.8 µM

Cc1ccc(-c2nc3ccccc3c(=O)n2NCC2(O)OCC(O)C(O)C2O)cc1 (stereo not drawn)
inactive: [1] > 100 µM | [2] > 100 µM | [3] > 100 µM | [4] > 100 µM | [5] > 100 µM | [6] > 100 µM | [7] > 100 µM | [8] > 100 µM | [9] > 100 µM | [10] > 100 µM | [11] > 100 µM | [12] > 100 µM | [13] > 100 µM | [14] > 100 µM | [15] > 100 µM | [16] > 100 µM

OCC(O)C(O)C(O)c1nn(-c2ccc(Cl)cc2)c2nc3cc(Cl)c(Cl)cc3nc12 (stereo not drawn)
inactive: [1] > 100 µM | [2] > 100 µM | [3] 50.8 µM | [4] > 100 µM | [5] > 100 µM | [6] > 100 µM | [7] > 100 µM | [8] > 100 µM | [9] > 100 µM | [10] > 100 µM | [11] 22.5 µM | [12] 20.7 µM | [13] 19.2 µM | [14] 47 µM | [15] > 100 µM | [16] > 100 µM

COC(=O)C1CC(OC(C)=O)C=C2C(=O)CCC21 (stereo not drawn)
inactive: [1] 22.4 µM | [2] 17.2 µM | [3] 15.9 µM | [4] 18.7 µM | [5] 16.3 µM | [6] 19.2 µM | [8] 27 µM | [9] 30.2 µM | [10] 13.9 µM | [11] 18.5 µM | [12] 24.1 µM | [14] 19.3 µM | [15] 16.1 µM | [16] 20.3 µM

COc1cc(/C=C(\C#N)C(=O)c2ccccc2)cc(OC)c1OC
inactive: [1] > 100 µM | [2] > 100 µM | [3] > 100 µM | [4] > 100 µM | [5] > 100 µM | [6] > 100 µM | [7] > 100 µM | [8] > 100 µM | [9] > 100 µM | [10] > 100 µM | [11] > 100 µM | [12] > 100 µM | [13] > 100 µM | [14] > 100 µM | [15] > 100 µM | [16] > 100 µM

CCCCC(C(=O)CCC(=O)Nc1ccc(Cl)cc1)C(=O)C(C)C (stereo not drawn)
inactive: [1] > 100 µM | [2] > 100 µM | [3] 25.1 µM | [4] > 100 µM | [5] > 100 µM | [6] > 100 µM | [7] > 100 µM | [8] > 100 µM | [9] > 100 µM | [10] > 100 µM | [11] > 100 µM | [12] > 100 µM | [13] > 100 µM | [14] 18.2 µM | [15] > 100 µM | [16] > 100 µM

N#CC1(C#N)C(c2ccccc2)C=CC12OCCCO2 (stereo not drawn)
inactive: [1] 40.3 µM | [2] 32.3 µM | [3] 30.6 µM | [4] 26.2 µM | [5] 24.9 µM | [6] 32.6 µM | [7] 47.5 µM | [8] 24.5 µM | [9] 68.5 µM | [10] 33 µM | [11] 17.7 µM | [12] 31.6 µM | [13] 31.2 µM | [14] 33.3 µM | [15] 23.4 µM | [16] 31.1 µM

COc1cccc(NC(=O)CC(=O)N2N=C(N(CCC#N)c3ccc(Cl)cc3)CC2c2ccccc2)c1 (stereo not drawn)
inactive: [1] > 100 µM | [2] > 100 µM | [3] > 100 µM | [4] > 100 µM | [5] > 100 µM | [6] > 100 µM | [7] > 100 µM | [8] > 100 µM | [9] > 100 µM | [10] > 100 µM | [11] > 100 µM | [12] > 100 µM | [13] > 100 µM | [14] > 100 µM | [15] > 100 µM | [16] > 100 µM

CN1OC2OC(=O)OC2[C@H]1[C@H]1O[C@H](c2ccccc2)OC1(C)c1cc(OC(=O)c2ccccc2)ccc1OC(=O)c1ccccc1 (stereo partly drawn)
inactive: [1] > 50 µM | [2] > 50 µM | [3] > 50 µM | [4] > 50 µM | [5] > 50 µM | [6] > 50 µM | [7] > 50 µM | [8] > 50 µM | [9] > 50 µM | [10] > 50 µM | [11] > 50 µM | [12] > 50 µM | [13] > 50 µM | [15] > 50 µM | [16] > 50 µM
